According to patent publication EP2955179A1, “CONDENSED HETEROCYCLIC COMPOUND” (Sumitomo Chemical Company Limited, priority 2013, dated 2014):
Where two headings read alike, the source gives them in different places.

Tests used:
Type in all cases: in vivo
Musca domestica = assay: whole plant or invertebrate; conditions: 24 h, read-out: death rate
Method: The formulations of Compounds of Present Invention 1-1, 1-40 and 1-42 as obtained in Formulation Example 5 were diluted with water, so as to have a concentration of the active ingredient of 500 ppm, to prepare a test drug solution.
A filter paper having a diameter of 5.5 cm was spread on the bottom of a polyethylene cup having the same diameter and 0.7 ml of the test drug solution was added dropwise onto the filter paper, and 30 mg of sucrose was uniformly placed as bait. Into the polyethylene cup, 10 female imagoes of Musca domestica were released, and the cup was sealed with a lid. After 24 hours, the life and death of Musca domestica was examined, the number of dead insects was counted, and the death rate was calculated according to the following equation. Death rate (%) = (Number of dead insects/Number of tested insects) × 100 [formula]

Plutella xylostella = assay: Test Example 6: spray on cabbage, Plutella xylostella larvae released; conditions: 120 h, read-out: death rate
Method: On the other hand, on cabbage at the third leaf stage planted in a polyethylene cup was sprayed, at a rate 20 mL/cup, the test drug solution. After the drug solution was dried, the foliage part was cut off, and then placed in a 50 mL volume cup. Five second instar larvae of Plutella xylostella were released into the cup, and the cup was sealed with a lid. After the cup was kept at 25°C for 5 days, the number of dead insects was counted. The death rate was calculated according to the following equation. Death rate (%) = (Number of dead insects/Number of tested insects) × 100 [formula]

Culex pipiens pallens = assay: Test Example 10: Culex pipiens pallens larvae in treated water; conditions: 24 h, read-out: death rate
Description: 20 last-instar larvae of Culex pipiens pallens were released into the solution. One day later, the life and death of the Culex pipiens pallens was examined, and the number of dead insects was counted to calculate the death rate. Death rate (%) = (Number of dead insects/Number of tested insects) × 100 [formula]

[1] = tested on: Haemaphysalis longicornis; assay: Test Example 11: coated screw tube contact test, Haemaphysalis longicornis ticks; conditions: 48 h, 2 mg compound in 0.2 mL acetone coated on inner wall of screw tube, unfed nymphal ticks, after 2 days, read-out: death rate
Method: 2 mg of each of Compounds of Present Invention 1-5, 1-24, 1-32 to 1-33, and 1-36 was weighed in a screw tube (Maruemu No. 5; 27 × 55 mm), 0.2 mL of acetone was added thereto, and the screw tube was sealed with a cap to dissolve the compound. The screw tube was rotated and inverted to uniformly coat the drug solution onto the whole inner wall of the tube. After removing the cap, the solution was air-dried for about 2 hours, then unfed nymphal ticks, Haemaphysalis longicornis (5 ticks/group) were released, and the tube was sealed with the cap. After 2 days, the number of dead insects was counted, and the death rate was calculated according to the following equation. Death rate (%) = (Number of dead insects/Number of tested insects) × 100 [formula]

Nilaparvata lugens [2] = assay: Test Example 4: drench at foot of rice seedling, Nilaparvata lugens larvae released; conditions: active ingredient 500 ppm, 5 ml drench at foot of rice seedling, 7 days at 25°C, then third-fourth instar larvae kept 6 days; for mortality at 500 ppm: Nilaparvata lugens, soil, 144 h, read-out: control value
[3] = tested on: Adoxophyes orana fasciata; assay: Test Example 7: spray on apple tree, Adoxophyes orana fasciata larvae released; conditions: in Malus domestica, 168 h, active ingredient 500 ppm, 20 mL/cup sprayed on apple tree, first-instar larvae, after 7 days, read-out: death rate
Method: The formulations of Compounds of Present Invention 1-1 to 1-6, 1-10, 1-21, 1-28, 1-31 to 1-34, 1-39 and 1-42 as obtained in Formulation Example 5 were diluted with water, so as to have a concentration of the active ingredient of 500 ppm, to prepare a test spray solution.
On the other hand, an apple tree was planted in a plastic cup, and grown until the seventh-eighth true leaf was spread. To the apple tree was sprayed, at a rate of 20 mL/cup, the test drug solution. After the drug solution was dried, 60 first-instar larvae of Adoxophyes orana fasciata were released, and covered with a plastic cup the bottom of which was cut off and on which a filter paper was put, with the plastic cup cover placed upside-down. After 7 days, the number of dead insects was counted, and the death rate was calculated according to the following equation. Death rate (%) = (Number of dead insects/Number of tested insects) × 100 [formula]

Aphis gossypii [4] = assay: Test Example 2: drench at foot of cucumber seedling, later inoculated with Aphis gossypii; conditions: soil, 144 h, active ingredient 500 ppm, 5 ml drench at foot of cucumber seedling, 7 days at 25°C, then inoculated and kept 6 days, read-out: control value
Method: (§1) On the other hand, a cucumber seedling (the second true leaf stage) planted in a plastic cup was drenched at its foot with 5 ml of the test drug solution, and kept in a greenhouse at 25°C for 7 days. On the cucumber leaf surface was inoculated about 30 Aphis gossypii (whole stage), and further kept in the greenhouse for 6 days, then the number of surviving Aphis gossypii parasitic on the leaves of the cucumber was examined, and the control value was calculated according to the following equation: Control value (%) = {1-(Cb×Tai)/(Cai×Tb)} × 100 [formula] wherein the symbols represent as follows: • Cb: the number of insects in a non-treated section before treatment • Cai: the number of surviving parasitic insects in a non-treated section on observation • Tb: the number of insects in a treated section before treatment • Tai: the number of surviving parasitic insects in a treated section on observation • wherein the non-treated section refers to a section where the test drug solution prepared by diluting the formulation obtained as in Formulation Example 5 but not containing the compound of the present invention with the same amount of water as in the treated section was sprayed.

Nilaparvata lugens [5] = assay: Test Example 3: spray on rice seedling, Nilaparvata lugens larvae released; conditions: 144 h, active ingredient 500 ppm, 10 ml sprayed on rice seedling, third-fourth instar larvae, after 6 days, read-out: control value
Aphis gossypii [6] = assay: Test Example 1: foliar spray on cucumber seedling inoculated with Aphis gossypii; conditions: 144 h, active ingredient 500 ppm, 20 ml sprayed on cucumber seedling, six days after spraying, read-out: control value
Method: as §1, with “hand, on” for “hand,”, “first” for “second”, “inoculated” for “drenched at its foot”, “with” for “with 5 ml of the test drug solution, and kept in a greenhouse at 25°C for 7 days. On the cucumber leaf surface was inoculated”, “left for a day. 20 ml of” for “further kept in”, “test drug solution was sprayed on the seedling. Six days after spraying,” for “greenhouse for 6 days, then”

[7] = active ingredient 500 ppm, 20 mL/cup sprayed on cabbage, second instar larvae, 25°C for 5 days
[8] = active ingredient concentration 3.5 ppm in ion-exchanged water, last-instar larvae, one day later

Question: `CCS(=O)(=O)c1cc(C(=O)OC)cnc1-c1nc2cc(C(F)(F)F)cnc2n1C` [Compound of Present Invention 1-1, methyl 5-ethylsulfonyl-6-(3-methyl-6-trifluoromethyl-3H-imidazo[4,5-b]pyridin-2-yl)nicotinate] was tested. Which mortality at 500 ppm (Musca domestica) did it give?
Answer: The mortality at 500 ppm was 100%.

Question: What about the mortality at 500 ppm (Plutella xylostella; [7]) of the same compound?
Answer: The mortality at 500 ppm was at least 80%.

Question: What about the mortality at 3.5 ppm (Culex pipiens pallens; [8]) of the same compound?
Answer: The mortality at 3.5 ppm was at least 95%.

Question: How did the mortality at 500 ppm (Plutella xylostella; [7]) turn out when `CCCOC(=O)c1cnc(-c2nc3cc(C(F)(F)F)cnc3n2C)c(S(=O)(=O)CC)c1` [Compound of Present Invention 1-4, propyl 5-ethylsulfonyl-6-(3-methyl-6-trifluoromethyl-3H-imidazo[4,5-b]pyridin-2-yl)nicotinate] was run?
Answer: Its mortality at 500 ppm is at least 80%.

Question: With `CCS(=O)(=O)c1cc(C(=O)OC(C)(C)C)cnc1-c1nc2cc(C(F)(F)F)cnc2n1C` [Compound of Present Invention 1-5, tert-butyl 5-ethylsulfonyl-6-(3-methyl-6-trifluoromethyl-3H-imidazo[4,5-b]pyridin-2-yl)nicotinate] as the compound, how does the mortality at 2 mg/tube, 2 mg/tube [1] read?
Answer: The mortality at 2 mg/tube, 2 mg/tube was 100%.

Question: How did the mortality at 500 ppm (Nilaparvata lugens [2]) turn out when `CCS(=O)(=O)c1cc(C(=O)N(C)C)cnc1-c1nc2cc(C(F)(F)F)cnc2n1C` [Compound of Present Invention 1-6, 5-ethylsulfonyl-N,N-dimethyl-6-(3-methyl-6-trifluoromethyl-3H-imidazo[4,5-b]pyridin-2-yl)nicotinamide] was run?
Answer: Its mortality at 500 ppm is at least 90%.

Question: What about the mortality at 500 ppm (Plutella xylostella; [7]) of the same compound?
Answer: The mortality at 500 ppm was at least 80%.

Question: What about the mortality at 3.5 ppm (Culex pipiens pallens; [8]) of the same compound?
Answer: The mortality at 3.5 ppm was at least 95%.

Question: Which results are given for `CCS(=O)(=O)c1cc(C(=O)NN(C)C)cnc1-c1nc2cc(C(F)(F)F)cnc2n1C` [Compound of Present Invention 1-7, 5-ethylsulfonyl-N',N'-dimethyl-6-(3-methyl-6-trifluoromethy 1-3H-imidazo[4,5-b]pyridin-2-yl)nicotinic acid hydrazide]?
Answer: mortality at 500 ppm (Plutella xylostella): ≥ 80%; mortality at 3.5 ppm (Culex pipiens pallens): ≥ 95%

Question: `CCS(=O)(=O)c1cc(C(=O)N2CCCC2)cnc1-c1nc2cc(C(F)(F)F)cnc2n1C` [Compound of Present Invention 1-8, 5-ethylsulfonyl-6-(3-methyl-6-trifluoromethyl-3H-imidazo[4,5-b]pyridin-2-yl)nicotinoylpyrrolidine] was tested. Which control value (Nilaparvata lugens [2]) did it give?
Answer: The control value was at least 90%.

Question: How did the mortality at 500 ppm [3] turn out when `CCS(=O)(=O)c1cc(C(=O)NC(C)(C)C)cnc1-c1nc2cc(C(F)(F)F)cnc2n1C` [Compound of Present Invention 1-10, N-tert-butyl-5-ethylsulfonyl-6-(3-methyl-6-trifluoromethyl-3H-imidazo[4,5-b]pyridin-2-yl)nicotinamide] was run?
Answer: The mortality at 500 ppm was at least 90%.

Question: And the mortality at 500 ppm (Nilaparvata lugens [2])?
Answer: The mortality at 500 ppm was at least 90%.

Question: What about the mortality at 500 ppm (Plutella xylostella; [7]) of the same compound?
Answer: The mortality at 500 ppm was at least 80%.

Question: What does the source list for `CCS(=O)(=O)c1cc(C(=O)N2CCOCC2)cnc1-c1nc2cc(C(F)(F)F)cnc2n1C` [Compound of Present Invention 1-13]?
Answer: mortality at 500 ppm (Aphis gossypii [4]): ≥ 90%; mortality at 3.5 ppm (Culex pipiens pallens; [8]): ≥ 95%

Question: `CCS(=O)(=O)c1cc(C(=O)N(C)OC)cnc1-c1nc2cc(C(F)(F)F)cnc2n1C` [Compound of Present Invention 1-18, 5-ethylsulfonyl-N-methoxy-N-methyl-6-(3-methyl-6-trifluoromethyl-3H-imidazo[4,5-b]pyridin-2-yl)nicotinamide] was tested. Which mortality at 500 ppm (Nilaparvata lugens [5]) did it give?
Answer: The mortality at 500 ppm was at least 90%.

Question: And the mortality at 500 ppm (Aphis gossypii [4])?
Answer: Its mortality at 500 ppm is at least 90%.

Question: And the mortality at 500 ppm (Aphis gossypii [6])?
Answer: The mortality at 500 ppm was at least 90%.

Question: For `CCS(=O)(=O)c1cc(C(=O)Nc2ccc(Cl)cc2)cnc1-c1nc2cc(C(F)(F)F)cnc2n1C` [Compound of Present Invention 1-20], which mortality at 3.5 ppm (Culex pipiens pallens; [8]) is on record?
Answer: The mortality at 3.5 ppm was at least 95%.

Question: With `CCS(=O)(=O)c1cc(C(C)=O)cnc1-c1nc2cc(C(F)(F)F)cnc2n1C` [Compound of Present Invention 1-21, 2-(5-acetyl-3-ethylsulfonylpyridin-2-yl)-3-methyl-6-trifluo romethyl-3H-imidazo[4,5-b] pyridine] as the compound, how does the mortality at 500 ppm [3] read?
Answer: Its mortality at 500 ppm is at least 90%.

Question: And the mortality at 500 ppm (Aphis gossypii [4])?
Answer: Its mortality at 500 ppm is at least 90%.

Question: What about the mortality at 500 ppm (Aphis gossypii [6]) of the same compound?
Answer: Its mortality at 500 ppm is at least 90%.

Question: Which mortality at 2 mg/tube, 2 mg/tube [1] does the source give for `CCS(=O)(=O)c1cc(C(=O)NC2CC2)cnc1-c1nc2cc(C(F)(F)F)cnc2n1C` [Compound of Present Invention 1-24] here?
Answer: The mortality at 2 mg/tube, 2 mg/tube was 100%.

Question: How did the mortality at 500 ppm [3] turn out when `CCS(=O)(=O)c1cc(C(=O)OCC(F)(F)F)cnc1-c1nc2cc(C(F)(F)F)cnc2n1C` [Compound of Present Invention 1-28] was run?
Answer: The mortality at 500 ppm was at least 90%.

Question: What about the mortality at 3.5 ppm (Culex pipiens pallens; [8]) of the same compound?
Answer: The mortality at 3.5 ppm was at least 95%.

Question: What does the source list for `CCS(=O)(=O)c1cc(C(=O)OCc2ccccc2)cnc1-c1nc2cc(C(F)(F)F)cnc2n1C` [Compound of Present Invention 1-32]?
Answer: mortality at 3.5 ppm (Culex pipiens pallens; [8]): ≥ 95%; mortality at 2 mg/tube, 2 mg/tube [1]: 100%

Question: How did the mortality at 2 mg/tube, 2 mg/tube [1] turn out when `CCS(=O)(=O)c1cc(C(=O)OCCOC)cnc1-c1nc2cc(C(F)(F)F)cnc2n1C` [Compound of Present Invention 1-33] was run?
Answer: Its mortality at 2 mg/tube, 2 mg/tube is 100%.

Question: `CCS(=O)(=O)c1cc(C(=O)NC2CSC2)cnc1-c1nc2cc(C(F)(F)F)cnc2n1C` [Compound of Present Invention 1-36] was tested. Which mortality at 2 mg/tube, 2 mg/tube [1] did it give?
Answer: The mortality at 2 mg/tube, 2 mg/tube was 100%.

Question: How did the mortality at 500 ppm [3] turn out when `CCOC(=O)c1cnc(-c2nc3cc([S+]([O-])C(F)(F)F)ccc3o2)c(S(=O)(=O)CC)c1` (centres unmarked) [Compound of Present Invention 1-39] was run?
Answer: The mortality at 500 ppm was at least 90%.

Question: And the mortality at 500 ppm (Plutella xylostella; [7])?
Answer: The mortality at 500 ppm was at least 80%.

Question: And the mortality at 3.5 ppm (Culex pipiens pallens; [8])?
Answer: Its mortality at 3.5 ppm is at least 95%.

Question: What does the source list for `CCS(=O)(=O)c1cc(C(N)=O)cnc1-c1nc2cc([S+]([O-])C(F)(F)F)ccc2o1` (centres unmarked) [Compound of Present Invention 1-41]?
Answer: mortality at 500 ppm (Plutella xylostella; [7]): ≥ 80%; mortality at 3.5 ppm (Culex pipiens pallens; [8]): ≥ 95%

Question: Which results are given for `CCS(=O)(=O)c1cc(C(=O)N(C)C)cnc1-c1nc2cc([S+]([O-])C(F)(F)F)ccc2o1` (centres unmarked) [Compound of Present Invention 1-42]?
Answer: mortality at 500 ppm (Nilaparvata lugens [5]): ≥ 90%; mortality at 500 ppm [3]: ≥ 90%; mortality at 500 ppm (Nilaparvata lugens [2]): ≥ 90%; mortality at 500 ppm (Aphis gossypii [4]): ≥ 90%; mortality at 500 ppm (Musca domestica): 100%; mortality at 500 ppm (Plutella xylostella; [7]): ≥ 80%
